Test results taken from paper PMC6396489 (Cell Communication and Signaling : CCS, 2019).
Residue numbers refer to the chain shown, from its start.

Key:
NIH3T3 cells = test: Wound-healing assay; type: cell-based
Experimental: To perform the wound-healing assay, NIH3T3 cells were seeded in 6-well tissue culture plates to a final density of 3 × 10^5 cells/well and maintained at 37 °C and 5% CO2 for 24 h until confluence before being starved overnight in DMEM containing 1% bovine serum. The cell monolayer was wounded by scratching with a 10 μL standard sterile pipette tip. The scratched monolayer was rinsed twice with DMEM containing 1% bovine serum to remove cell debris and incubated with or without 50 μM GroPIns4P. […] In detail, the input image was processed by applying a Sobel edge detector [26], obtaining a gradient image. A threshold process was then performed on the gradient image to obtain the foreground corresponding to the wound area. Particularly, all of the pixels of the gradient image with values less than the threshold θ were assumed to be pixels of the foreground (experimentally, θ is set to 4). Finally, procedures based on morphological operations were used to remove small regions and to fill holes of the wound area to complete detection and analysis.

Shp1 and Src = test system: T1, Shp1 and Src; test: Co-immunoprecipitation of Src with Shp1 in NIH3T3 cells; type: cell-based; settings: 50 μM for 5 min
T1 construct: expressed in transfected cells; host or cells: NIH3T3
Experimental: NIH3T3 cells were washed with ice-cold PBS and lysed on ice in buffer containing 20 mM Tris-HCl, pH 8.0, 150 mM NaCl, 1% Triton-X100, 5 mM Na3VO4, 30 mM β-glycerophosphate and 10 mM NaF supplemented with the protease inhibitor cocktail and processed for SDS-PAGE. Westen blotting was performed with the relevant antibodies. For immunoprecipitation experiments, 2 μg of an anti-Shp1 antibody or 5 μg of an anti-Src antibody were added to 1 mg of NIH3T3 cell lysates at 4 °C and incubated overnight. The samples were then incubated with A or G protein agarose beads for 1 h at 4 °C. Western blotting was performed from the washed and denatured complexes.

[1] = target: T2, Shp1 S118A/R138E/S140A mutant (Homo sapiens, UniProt P29350, R136E/S116A/S138A); test: Trp fluorescence emission spectroscopy of Shp1 S118A/R138E/S140A mutant; type: binding; settings: S118A/R138E/S140A vs wild type
T2 construct: a tailless-form of Shp1 (residues 1–529) has previously been used [25] and it is used also in this study; 6xHis (N); made in house; host or cells: E. coli BL21(DE3)
T2 sequence (P29350 1-529 isoform P29350-3 S118A/R138E/S140A): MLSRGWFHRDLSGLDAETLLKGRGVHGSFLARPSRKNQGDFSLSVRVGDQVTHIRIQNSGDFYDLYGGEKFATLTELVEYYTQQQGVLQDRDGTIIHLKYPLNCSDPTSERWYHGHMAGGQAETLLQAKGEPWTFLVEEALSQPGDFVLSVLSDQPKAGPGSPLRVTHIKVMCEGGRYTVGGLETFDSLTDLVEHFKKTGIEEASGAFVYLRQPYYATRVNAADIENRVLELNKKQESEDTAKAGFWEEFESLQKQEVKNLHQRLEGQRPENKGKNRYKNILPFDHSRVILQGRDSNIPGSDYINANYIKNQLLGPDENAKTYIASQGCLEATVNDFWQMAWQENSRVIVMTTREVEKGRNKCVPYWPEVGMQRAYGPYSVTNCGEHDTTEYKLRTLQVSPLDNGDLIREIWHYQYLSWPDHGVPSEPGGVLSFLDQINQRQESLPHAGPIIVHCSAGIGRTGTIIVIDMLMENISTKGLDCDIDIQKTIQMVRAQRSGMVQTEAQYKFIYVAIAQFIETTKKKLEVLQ
Experimental: (§1) The absorption spectra of Shp1 were recorded using a Varian Cary 1 spectrophotometer. Steady-state fluorescence emission measurements were performed with a K2 fluorometer (ISS, Champaign, IL, USA) equipped with a two-cell temperature-controlled sample holder. To selectively excite Trp residues, the excitation wavelength was set at 295 nm with a slit width of 1 nm. To avoid the inner-filter effect, all steady-state fluorescence measurements were performed on Shp1 with optical densities at 295 nm less than 0.1 OD. All measurements were made at 25 °C with the temperature of the samples determined in the cuvette with an accuracy of ±0.2 °C. For each experiment, the Shp1 concentration was fixed at 1.2 μM, while GroPIns4P was varied from 0.0 to 5.0 μM. Thus, a 500 μL solution containing 1.2 μM Shp1 dissolved in PBS pH 7.4 was titrated by successive additions of GroPIns4P (dissolved in PBS buffer, pH 7.4). After each addition, the samples were incubated for 2 min and fluorescence emission spectra were recorded between 310 and 410 nm in triplicate. To exclude the influence of sample dilution, fluorescence titration experiments were performed by adding the same amount of PBS buffer in the total volume (500 μL).

Shp1 = target: T3, Shp1 (Homo sapiens, UniProt P29350); test: Steady-state Trp fluorescence emission spectroscopy of purified Shp1; type: binding
T3 construct: the C-terminal truncated form of human Shp1 cDNA (His-Shp1; amino acids 1–529); made in house; host or cells: E. coli BL21(DE3)
T3 sequence (P29350 1-529 isoform P29350-3): T2 sequence (P29350 1-529 isoform P29350-3 S118A/R138E/S140A) with A118S, E138R, A140S
Experimental: as §1

Structure (SMILES): O=P(O)(O)OC1C(O)C(O)C(OP(=O)(O)OCC(O)CO)C(O)C1O (stereo not drawn) [GroPIns4P, glycerophosphoinositol 4-phosphate]
- increase of wound closure compared to the control (NIH3T3 cells; 50 μM, 6 h after scratching): 65%
- wound closure (NIH3T3 cells; 50 μM, at 30 h): almost complete
- rescue of EGF effect in cells treated with cPLA2α inhibitor (NIH3T3 cells; EGF 10 ng/ml, cPLA2α inhibitor, 50 μM GroPIns4P): could be rescued
- increase in the interaction between Shp1-C455S and Src (Shp1 and Src; NIH3T3 over-expressing Shp1-C455S): 2.2 fold
- change in Shp1-Src complex formation (Shp1 and Src; NIH3T3 over-expressing Shp1 S118A/R138E/S140A): no change
- increase of Shp1-Src interaction compared with the control (Shp1 and Src; NIH3T3 over-expressing Shp1 WT): about 1.6 fold
- decrease of binding efficiency of the mutated protein [1]: up to 50%
- EC50 (Shp1; Shp1 1.2 μM, GroPIns4P 0.0 to 5.0 μM, emission at 332 nm, read-out: apparent EC50 of Trp fluorescence quenching): ~600 nM
- maximal quenching of the initial emission (Shp1; at 5 μM GroPIns4P): 18%
